According to US20230026163A1, “ANTICANCER COMPOUND AND MEDICAL USE THEREOF” (ASCENTAWITS PHARMACEUTICALS, LTD., priority 2019, published 2023):
Read-outs that look alike come from different tables or passages of the source.

Assays:
[1] = test system: H460 cell line; assay: Hypoxia-dependent cytotoxicity experiment (2 hours exposure, air or N2, CTG); format: cell-based; conditions: Homo sapiens, then 3 days
Experimental: To determine the effect of the compounds of the present disclosure on cancer cell proliferation, these compounds were tested for cancer cell anti-proliferative activity in a porous CTG-based assay. Cell growth was compared in the present (treatment groups) and the absence of the test compound. 10,000 cells/well/495 μL of medium was used to test the following cell line, a human tumor cell line of H460 non-small cell lung cancer. The cells were seeded on glass-inserts located in each well of 24-well plates with a density and medium as specified above. 24 hours later, the plates were divided into 2 groups, hypoxia (using N2) group and air group. TH-302 at the concentrations from 100, 10, 0.1 to 0.01 μM, and the test compounds at the concentrations from 10, 1, 0.1, 0.01, 0.001 to 0.0001 were added to each well (500 μL volume) of the treatment groups. The final DMSO concentration in each well was lower than or equal to 1%. The cells in the hypoxia group were incubated for 2 hours in an ELECTROTEK hypoxia workstation. The cells in the air group were incubated for 2 hours in a standard culture incubator. 2 hours later, the test compounds were removed from each well. The cells were washed with 500 μL of medium and incubated in 500 μL of fresh medium for 3 days. 3 days later, 200 μL of medium per well was discarded. 60 μL of CTG was added to the wells, and the plates were placed at room temperature for 15 minutes in the dark. 100 μL of medium from each well of the 24-well plates was transferred to 96-well plates. The chemiluminescence signal values were read with an M5 full-band multi-mode-function microplate reader, and integration=750 ms. The compounds of control 1 and control 2 were used as controls.

[2] = target: P-glycoprotein (Homo sapiens, UniProt P08183); assay: in vitro
Experimental: MDCKII-MDR1 cells were incubated in cell culture flasks. The incubator was set at 37° C., 5% CO2, and a guaranteed relative humidity of 95%. When the cells reached 70 to 90% confluence, the cells may be seeded to transwells.
50 μL of the cell suspensions were added to the apical chambers of each well of the 96-well transwells at a final seeding density of 5.45×10^5 cells/cm^2.
MDCKII-MDR1 cells may be fully confluent and differentiated after 4 to 8 days of incubation. At this time, the cells may be applied to penetration test. The monolayer membrane resistance was measured with a resistance meter (Millipore), and the resistance per well was recorded. After the test, the transwells were returned to the incubator.
The transwells with MDCKII-MDR1 cells were taken from the incubator. The cell monolayers were rinsed twice with buffer and incubated at 37° C. for 30 minutes.
The rate of the compounds from an apical end to a basolateral end was determined. 75 μL of the buffer containing the test sample was added to each well of the apical chambers (apical end), and 235 μL of the buffer was added to each well of the basolateral chambers (basolateral end).
The rate of the compounds transporting from the basolateral end to the apical end was determined. 75 μL of the buffer was added to the apical chambers (apical end), and 235 μL of the buffer containing the test sample was added to the basolateral chamber (basolateral end).
After the apical chambers and the basolateral chambers were combined respectively, the transwells were incubated at 37° C. for 2 hours.
After incubation, 50 μL of the sample from each well of the apical chambers and the basolateral chambers of the transwells was transferred to new sample tubes respectively. 200 μL of acetonitrile (100 nM of Alprazolam, 200 nM of Labetalol, 200 nM of caffeine, and 2 μM of Ketoprofen) as an internal standard was added to the sample tubes, vortexed for 10 minutes, and centrifuged at 3220 g for 30 minutes. 100 μL of the supernatant was taken and diluted with an equal volume of water for LC-MS/MS analysis. Each sample was incubated in triplicate.
Peak-areas were calculated from ion chromatography results. The apparent permeability coefficient (Papp, unit: cm/s×10-6) of the compounds was calculated by the following formula.
In the formula, VA was the volume of the solution at the acceptor end (Ap→B1 was 0.235 mL, and B1→Ap was 0.075 mL), Area was the membrane area (0.143 cm^2) of 96-well transwell, time was the incubation time (unit: s), [drug]acceptor referred to the drug concentration of the acceptor end after incubation, and [drug]initial,donor referred to the initial concentration of the donor end before incubation.
Efflux ratio was calculated with the following formula.
In the formula, Papp(B_A) was the apparent permeability coefficient from the basolateral end to the apical end, and Papp(A-B) was the apparent permeability coefficient from the apical end to the basolateral end.
The recovery rate was calculated with the following formula.
In the formula, VA was the solution volume of the acceptor end (unit: mL), VD was the solution volume of the donor end (unit: mL), [drug]acceptor referred to the drug concentration of the acceptor end after incubation, and [drug]initial,donor referred to the initial concentration of the donor end before incubation.

[3] = test system: GA6201 tumor of HuPrime® model; assay: PDX model, subcutaneously transplanted human gastric cancer; format: in vivo, BALB/c nude mice; conditions: for Tumor volume: ifosfamide 60 mg/kg i.p., compound 01 5-50 mg/kg
Experimental: BALB/c nude mice were subcutaneously inoculated with GA6201 tumor of HuPrime® model to establish a subcutaneously transplanted tumor model of human gastric cancer. The experiment was divided into a vehicle control group 1 with normal saline (pH 7.0-7.6), a control group 2 with ifosfamide (60 mg/kg), and an Experimental group (Exp. group) with compound 01 (5-50 mg/kg), and 5 mice per group.
The Exp. group with compound 01 (5-50 mg/kg) was administered by intraperitoneal injection for 5 consecutive days and stopped for 2 days a week, and administered for 2 weeks. Then, the dose was changed to 10 mg/kg by intraperitoneal injection, administered daily for 4 days. After that, the dose and administration method were changed. The dose was 20 mg/kg by tail vein injection for 1 day. After 10 days of drug withdrawal, the dose was changed again. The dose was 50 mg/kg by tail vein injection, once a week, for 2 weeks, and one week of observation. […] The safety was evaluated according to the changes in animal body weight and death.
The tumor volume of each group of mice was measured on different days, and the average value was obtained.

Sequence of P-glycoprotein (P08183 whole entry): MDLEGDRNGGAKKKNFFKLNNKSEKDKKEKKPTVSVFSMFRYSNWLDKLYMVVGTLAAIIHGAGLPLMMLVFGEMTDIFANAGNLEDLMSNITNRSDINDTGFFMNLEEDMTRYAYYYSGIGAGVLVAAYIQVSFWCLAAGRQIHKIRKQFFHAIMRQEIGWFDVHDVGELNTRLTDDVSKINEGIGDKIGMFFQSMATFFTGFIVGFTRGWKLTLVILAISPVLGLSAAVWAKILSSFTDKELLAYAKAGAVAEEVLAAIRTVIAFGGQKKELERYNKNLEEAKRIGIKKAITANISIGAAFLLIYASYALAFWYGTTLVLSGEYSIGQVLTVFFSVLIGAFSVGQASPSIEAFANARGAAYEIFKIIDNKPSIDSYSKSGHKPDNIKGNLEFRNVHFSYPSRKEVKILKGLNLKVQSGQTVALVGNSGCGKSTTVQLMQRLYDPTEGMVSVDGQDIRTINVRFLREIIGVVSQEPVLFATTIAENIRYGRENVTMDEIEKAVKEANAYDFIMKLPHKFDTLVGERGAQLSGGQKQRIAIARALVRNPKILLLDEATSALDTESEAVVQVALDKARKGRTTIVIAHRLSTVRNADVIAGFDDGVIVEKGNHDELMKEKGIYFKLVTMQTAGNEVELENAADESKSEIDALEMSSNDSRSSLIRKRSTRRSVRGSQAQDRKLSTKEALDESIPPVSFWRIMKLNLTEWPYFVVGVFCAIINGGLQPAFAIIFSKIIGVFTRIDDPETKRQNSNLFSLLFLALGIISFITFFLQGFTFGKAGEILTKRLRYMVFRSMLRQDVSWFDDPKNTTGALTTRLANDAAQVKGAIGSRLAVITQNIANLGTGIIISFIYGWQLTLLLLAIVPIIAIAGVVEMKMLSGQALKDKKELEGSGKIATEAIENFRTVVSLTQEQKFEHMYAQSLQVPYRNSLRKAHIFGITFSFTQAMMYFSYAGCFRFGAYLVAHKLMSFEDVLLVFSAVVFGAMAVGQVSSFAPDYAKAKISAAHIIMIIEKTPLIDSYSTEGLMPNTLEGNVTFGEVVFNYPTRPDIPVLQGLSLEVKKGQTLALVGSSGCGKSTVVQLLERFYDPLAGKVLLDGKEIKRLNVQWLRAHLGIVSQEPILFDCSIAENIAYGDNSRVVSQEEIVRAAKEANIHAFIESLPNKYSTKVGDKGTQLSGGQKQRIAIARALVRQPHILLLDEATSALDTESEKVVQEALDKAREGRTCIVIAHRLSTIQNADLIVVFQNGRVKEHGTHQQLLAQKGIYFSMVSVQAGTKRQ

## O=[N+]([O-])c1ccc(C(OP(=O)(N2CC2)N2CC2)C(F)(F)F)c2ccccc12 (stereo not shown) [Compound 01]
[1]; NCI-H460, H460, air, read-out: Normoxia: IC50
  IC50: 331 nM
[1]; NCI-H460, H460, hypoxia (N2), read-out: N2: IC50
  IC50: 23.9 nM
[2]; dog, MDCK-MDR1
  Papp A→B at 2 h: 18.6 ×10⁻⁶ cm/s
  Papp B→A at 2 h: 11.9 ×10⁻⁶ cm/s
[2]; dog, MDCK-MDR1, Recovery (%) AP-BL, Verapamil 0 μM
  recovery at 2 h: 58.6%
[2]; dog, MDCK-MDR1, Recovery (%) AP-BL, Verapamil 100 μM
  recovery at 2 h: 63.4%
[2]; dog, MDCK-MDR1, Recovery (%) BL-AP, Verapamil 0 μM
  recovery at 2 h: 58.6%
[2]; dog, MDCK-MDR1, Recovery (%) BL-AP, Verapamil 100 μM
  recovery at 2 h: 67.3%
[2]; with vs without Verapamil
  P-glycoprotein substrate (experimental conclusion): not P-glycoprotein substrates
[3]; GA6201 PDX
  Inhibition of tumor growth compared with ifosfamide (conclusion): obvious advantages in inhibiting tumor growth
[3]; day 0
  Tumor volume: 94.24 mm^3
[3]; day 3
  Tumor volume: 121.79 mm^3
[3]; day 7
  Tumor volume: 123.19 mm^3
[3]; day 10
  Tumor volume: 153.46 mm^3
[3]; day 14
  Tumor volume: 191.17 mm^3
[3]; day 17
  Tumor volume: 219.91 mm^3
[3]; day 21
  Tumor volume: 246.57 mm^3
[3]; day 24
  Tumor volume: 271.72 mm^3
[3]; day 28
  Tumor volume: 280.86 mm^3
[3]; day 31
  Tumor volume: 270.68 mm^3
[3]; day 35
  Tumor volume: 299.31 mm^3
[3]; day 38
  Tumor volume: 277.17 mm^3
[3]; day 42
  Tumor volume: 300.46 mm^3
[3]; day 45
  Tumor volume: 342.08 mm^3
[3]; day 49
  Tumor volume: 287.47 mm^3
